According to paper PMC8389922, “First-in-Class Cyclic Temporin L Analogue: Design, Synthesis, and Antimicrobial Assessment” (Journal of Medicinal Chemistry, 2021):
Converted amounts (≈) assume the structure as drawn. Square brackets hold non-standard residues; d marks the D form. Peptide text beside a SMILES is read from it.

What was measured:
FtsZ protein = details: E. coli divisome; cited from earlier work
Source text: Temporins are AMPs and belong to the group of host defense peptides (HDP), originally isolated from the amphibian skin secretions of the […] Rana temporaria.[29] Their sequences are composed of 10–14 amino acids, amidated at the C-terminus. In hydrophobic environments, temporins fold into an amphipathic α-helix that, along with their cationic nature at physiological pH (from +2 to +3), is accountable for their biological behavior.

in vitro = details: male, human, 90% fresh human serum
Description: (§5) Peptides were incubated with 90% fresh human serum at 37 ± 1 °C within 12 h.[69] The percentage of intact peptide was monitored by calculating the peak area of the chromatogram from RP-HPLC analysis.
(§6) The peptide was incubated in a 1.5 mL eppendorf tube with human serum at a final concentration of 0.2 mM, and the mixture was incubated at 37 ± 1 °C for different periods (0.25, 0.75, 1.5, 2, 3, 4, 6, 7, 8, and 12 h). After the incubation period, an aliquot of reaction solution was taken and added MeCN (double volume respect to the aliquot) for the precipitation of serum proteins present in human serum. The produced cloudy solution was cooled (4 °C) for 15 min and then centrifuged at 13 000 rpm for 10 min to remove the serum protein as pellet. Then, the supernatant was analyzed by RP-UHPLC using a linear elution gradient from 10 to 90% MeCN (0.1% TFA) in water (0.1% TFA) over 20 min. A flow rate of 1 mL/min was employed, and the absorbance of the eluting peaks was detected at 220 nm. The proteolytic stability assay was repeated in triplicate.

S. aureus ATCC 25923 = type: cell-based, Staphylococcus aureus
Description: (§1) The antimicrobial activity of peptides 9–26 was assessed against a range of reference bacterial strains such as S. aureus ATCC 25923, Staphylococcus epidermidis ATCC 12228, Bacillus megaterium Bm11, E. coli ATCC 25922, P. aeruginosa ATCC 27853, and A. baumannii ATCC 19606 by the broth microdilution assay to determine the minimal growth inhibitory concentration (MIC, Table 1).[59] First, we evaluated the effects produced by the lactam bridge between Lys and Glu residues placed at different positions along the peptide sequence of reference 9. […] When the i,i+7 cyclization strategy was applied (20–23), a dramatic decrease of bacterial inhibition activity was observed. Specifically, the peptides 20, 22, and 23 only affected the microbial growth of the Gram-positive B. megaterium Bm11, at 12.5 μM. […] Peptide 25, which differs from 9 by the presence of an olefin bridge rather than lactam one, dramatically lost the activity (MIC > 100 μM) vs both Gram-positive and Gram-negative strains.
(§2) The determination of MICs was conducted as previously reported.[61] Aliquots of 50 μL of bacterial culture appropriately diluted were added to each well of a 96-well plate to reach a final cell density of 1 × 10^6 CFU/mL and a final peptide concentration ranging from 100 to 0.78 μM (final volume 100 μL).

E. coli ATCC 25922 = type: cell-based, Escherichia coli
Description: as §1, §2

P. aeruginosa ATCC 27853 = type: cell-based, Pseudomonas aeruginosa
Description: as §1, §2

[1] = system: S. epidermidis ATCC 12228; type: cell-based, Staphylococcus epidermidis
Description: as §1, §2

A. baumannii ATCC 19606 = type: cell-based, Acinetobacter baumannii
Description: as §1, §2

[2] = system: preformed biofilm of A. baumannii ATCC 19606; details: ATCC 19606, 20 h
Description: (§3) Biofilm viability was determined as indicated in the Materials and General Procedures section and expressed as a percentage compared to that of untreated samples (100%). Values are the mean of at least three replicates ± SEM. Data are considered to be statistically significant as follows: *p < 0.05; ***p < 0.001; ****p < 0.0001. Biofilm eradication concentration 90, BEC90, was defined as the concentration able to reduce at least 90% of biofilm cells. TEXT PRINTED IN THE PICTURE: 9: S. aureus ATCC 25923: BEC90 = 25 μM; A. baumannii ATCC 19606: BEC90 > 100 μM | 12: S. aureus ATCC 25923: BEC90 = 12.5 μM; A. baumannii ATCC 19606: BEC90 = 25 μM
(§4) Preformed biofilms of S. aureus ATCC 25923 and A. baumannii ATCC 19606 were obtained as previously reported.[77] Microbial cultures were grown in Luria-Bertani broth (LB) at 37 °C to an optical density (OD) of 0.8 (λ = 590 nm) and then diluted in LB to a cell density of 1 × 10^6 colony-forming units (CFUs)/mL. Aliquots of 100 μL were dispensed into the wells of a 96-well plate, which was incubated for 20 h at 37 °C to allow biofilm formation. The medium containing planktonic cells was then aspirated from the wells and washed twice with 150 μL of phosphate-buffered saline (PBS) to remove any nonadherent cells. […] After treatment, each well was rinsed twice with PBS, as previously described. Then, 150 μL of MTT solution (0.5 mg/mL) were added to each well to evaluate biofilm cell viability. The plates were incubated at 37 °C for 4 h in the dark, and the reaction was stopped by adding sodium dodecyl sulfate (SDS) (at a final concentration of 5% v/v). The absorbance of each well was recorded at 570 nm using a microplate reader (Infinite M200; Tecan, Salzburg, Austria), and the percentage of biofilm cells viability was calculated with respect to the untreated samples (100%).

[3] = system: preformed biofilm of S. aureus ATCC 25923; details: ATCC 25923, 20 h
Description: as §3, §4

B. megaterium Bm11 = type: cell-based, Bacillus megaterium
Description: as §1, §2

[4] = 90% fresh human serum (male AB plasma), 37 ± 1 °C, peptide 0.2 mM, MeCN precipitation, RP-UHPLC peak area at 220 nm, triplicate
Description: as §5, §6

[5] = system: S. aureus ATCC 43300, a methicillin-resistant strain (MRSA); type: cell-based, Staphylococcus aureus
Description: Thus, 12 was further tested against S. aureus ATCC 43300, a methicillin-resistant strain (MRSA), and compared with the linear precursor 9. […] No growth was observed after 24 h. Peptide 9 was bactericidal as well, by killing MRSA within 10 min, but at a higher concentration (25 μM).
The bacterial strains used in the antimicrobial assays were the Gram-negative E. coli ATCC 25922, P. aeruginosa ATCC 27853, A. baumannii ATCC 19606, the Gram-positive S. aureus ATCC 25923, S. epidermidis ATCC 12228, and B. megaterium Bm11. Methicillin-resistant S. aureus (MRSA) ATCC 43300 was obtained from Culture Collection Center of School of Basic Medical Sciences of Lanzhou University (China).
as §2

circular dichroism = details: water; pH ns; 25 °C; 50 uM

Compound	Kd (FtsZ protein) [nM]	metabolised at 0.75 h, 0.2 mM (in vitro) [%]	MIC S. aureus ATCC 25923 (S. aureus ATCC 25923) [µM]	MIC E. coli ATCC 25922 (E. coli ATCC 25922) [µM]	MIC P. aeruginosa ATCC 27853 (P. aeruginosa ATCC 27853) [µM]	MIC S. epidermidis ATCC 12228 [1] [µM]	MIC A. baumannii ATCC 19606 (A. baumannii ATCC 19606) [µM]	Biofilm Eradication Concentration 90 (BEC90) A. baumannii ATCC 19606 [2] [µM]	Biofilm Eradication Concentration 90 (BEC90) S. aureus ATCC 25923 [3] [µM]	MIC B. megaterium Bm11 (B. megaterium Bm11) [µM]	time to complete degradation in human serum [4] [h]	MIC S. aureus ATCC 43300 (MRSA) [5] [µM]	helicity (circular dichroism) [%]
FVQWFSKFLGRIL [compound 7, Temporin L]	17.4 ± 0.8	–	–	–	–	–	–	–	–	–	–	–	–
CC[C@H](C)[C@H](NC(=O)[C@H](CCCNC(=N)N)NC(=O)CNC(=O)[C@@H](CC(C)C)NC(=O)[C@H](Cc1ccccc1)NC(=O)[C@H](CCCCN)NC(=O)[C@H](CO)NC(=O)[C@H](Cc1ccccc1)NC(=O)[C@H](Cc1c[nH]c2ccccc12)NC(=O)[C@@H]1CCCN1C(=O)[C@@H](NC(=O)[C@@H](N)Cc1ccccc1)C(C)C)C(=O)N[C@@H](CC(C)C)C(N)=O [compound 9, [Pro^3,DLeu^9]TL, reference compound] (H-FVPWFSKF[dL]GRIL-NH2)	–	~40	6.25 (≈ 10.1 µg/mL)	12.5 (≈ 20.1 µg/mL)	50 (≈ 80.5 µg/mL)	6.25 (≈ 10.1 µg/mL)	6.25 (≈ 10.1 µg/mL)	> 100	25	1.56 (≈ 2.51 µg/mL)	≤ 6	25 (≈ 40.2 µg/mL)	3
